Laboratory results published in patent US20230158049A1, “COMPOSITIONS AND METHODS FOR TREATING VIRUSES” (University of Virginia Patent Foundation, priority 2020, published 2023).

System: SARS-CoV-2
Settings: […]

In the case of `C[C@H]1c2cccc(O)c2C(=O)C2=C(O)[C@]3(O)C(=O)C(C(N)=O)=C(O)[C@@H](N(C)C)[C@@H]3[C@@H](O)[C@@H]21` [doxycycline], the “time to symptom improvement” value (doxycycline 100 mg twice daily with osimertinib) is reported as no more than 1 week and the “time to improvement in all symptoms” value (doxycycline 200 mg then 100 mg daily for 5 days) is reported as no more than 5 days.
